IC50 data for five molecules are collected here from patent publication US20100292214A1, “Compounds with Antiparasitic Activity, Applications thereof to the Treatment of Infectious Diseases Caused by Apicomplexans” (commissariat a l'Energie Atomique, priority 2007, published 2010).

Test [1] has as its system asynchronous 3D7 chloroquine-sensitive P. falciparum infected red blood cells. Description: Labeled hypoxanthine incorporation assay (in vitro anti-malarial activity). The test is classed as cell-based. As to conditions: Plasmodium falciparum, 3D7, Erythrocyte, read-out: IC50 assessed on Plasmodium Falciparum.
Test [2] has as its system Toxoplasma gondii RH-β1 strain. Description: microbe, parasite or virus in culture. In kind it is cell-based. As to conditions: Toxoplasma gondii, read-out: IC50 assessed on Toxoplama Gondii.
Setting [3] is: 3D7 chloroquine-sensitive strain, infected RBC, 48 h contact, [3H]-hypoxanthine incorporation, two independent experiments in duplicates.

Where two headings read alike, the source gives them in different places.

A word on the IC50: it is the midpoint of a concentration-inhibition curve. Regarding `Cc1ccccc1S(=O)(=O)N(c1ccccc1)C1CCN(C(=O)OC[C@H](C)N(Cc2ccccc2)Cc2ccccc2)CC1` [Compound 167, (S)-2-(dibenzylamino)propyl 4-(N-phenyl-2-methylphenylsulfonamido)piperidine-1-carboxylate], the IC50 in test [1] (setting [3]) was found to be 338 nM; in test [2] it was 3900 nM.
Regarding `Cc1cccc(S(=O)(=O)N(c2ccccc2)C2CCN(C(=O)OC[C@H](C)N(Cc3ccccc3)Cc3ccccc3)CC2)c1` [Compound 168, (S)-2-(dibenzylamino)propyl 4-(N-phenyl-3-methylphenylsulfonamido)piperidine-1-carboxylate], the IC50 was 483 nM in test [1] (setting [3]) and 2900 nM in test [2].
For `C[C@@H](COC(=O)N1CCC(N(c2ccccc2)S(=O)(=O)c2cccc(C(F)(F)F)c2)CC1)N(Cc1ccccc1)Cc1ccccc1` [Compound 169, (S)-2-(dibenzylamino)propyl 4-(N-phenyl-3-(trifluoromethyl)phenylsulfonamido)piperidine-1-carboxylate], the IC50 is 553 nM in test [1] (setting [3]) and 3200 nM in test [2].
The matching figures for `C[C@@H](COC(=O)N1CCC(N(c2ccccc2)S(=O)(=O)c2cccc3c(N(C)C)cccc23)CC1)N(Cc1ccccc1)Cc1ccccc1` [Compound 172, (S)-2-(dibenzylamino)propyl 4-(N-phenyl-(5-dimethylamino)naphthalen-1-ylsulfonamido)piperidine-1-carboxylate]: 314 nM and 212 nM.
`Oc1cc(Cl)ccc1Oc1ccc(Cl)cc1Cl` [Triclosan, reference compound]: the values for the IC50 in test [1] and in test [2] were 1550 nM and 320 nM, respectively.
